The values below come from paper PMC6219668 (Oncotarget, 2018).

Like-named read-outs stand apart in the source and are kept apart here. A value given as a limit tells only on which side of the number the result lay.

Test [1] deals with JeKo-1 xenograft. It counts as in vivo. The following applies: for tumor response: qd, po.
The subject of test [2] is HBCx-3. It counts as in vivo. The following applies: HBCx-3, Breast, TNBC, Rb present; 125 mg/kg bid × 21.
The test system of test [3] is HBCx-16. It counts as in vivo. The following applies: HBCx-16, Breast, HER2High, Rb present; 125 mg/kg bid × 21.
For test [4], the system named is HPAX0991. The format is in vivo. The following applies: HPAX0991, Pancreatic, Rb present; 250 mg/kg qd.
Test [5] concerns HPAX1633. The format is in vivo. The following applies: HPAX1633, Pancreatic, Rb present; 250 mg/kg qd.
In test [6] the test system is KELLY. As to the kind of experiment: cells. The format is cell-based. The following applies: 72 h.
In test [7] the test system is CHP-212. As to the kind of experiment: cells. Conditions: Homo sapiens, CHP-212, 72 h. The format is cell-based.
For test [8], the system named is LnCAP. The test can be described thus: cells. It counts as cell-based. The following applies: Homo sapiens, 72 h.
Test [9] deals with MELJUSO. As to the kind of experiment: cells. The format is cell-based. The following applies: Homo sapiens, MEL-JUSO, 72 h.
Test [10] relates to UACC-62. The test can be described thus: cells. It counts as cell-based. Conditions: Homo sapiens, UACC-62, 72 h.
Test [11] relates to MCF-7. The test can be described thus: cells. Conditions: Homo sapiens, MCF7; MCF-7, 72 h. It counts as cell-based.
Test [12] has as its system OE33. The test can be described thus: cells. It counts as cell-based. The following applies: Homo sapiens, OE33, 72 h.
Test [13] concerns MELJUSO. As to the kind of experiment: cells. It counts as cell-based. The following applies: Homo sapiens, MEL-JUSO, 72 h. The source holds these as a separate data set.
Test [14] relates to A-375. As to the kind of experiment: cells. It counts as cell-based. The following applies: Homo sapiens, A-375, 72 h.
The test system of test [15] is CDK2/cyclin A. Conditions: cited from earlier work.
The subject of test [16] is NCI-H2009. On the set-up: method as in Brain C et al, manuscript in preparation. Conditions: RB1-deleted lung adenocarcinoma line; up to 10 μM; ref Brain C et al, manuscript in preparation; cited from earlier work.

For orientation: IC50 means the concentration needed to halve the response being measured. As for `CN(C)C(=O)c1cc2cnc(Nc3ccc(N4CCNCC4)cn3)nc2n1C1CCCC1` [Ribociclib, 7-cyclopentyl-2-(5-piperazin-1-yl-pyridin-2-ylamino)-7H-pyrrolo[2,3-d]pyrimidine-6-carboxylic acid dimethylamide], the tumor response result in test [1] (75 mg/kg) and in [1] (150 mg/kg) was “complete tumor regression” in each case. The same molecule yielded a tumor growth inhibition in test [1] (rat, in vivo) of 56%. For the same molecule, the T/C in test [2] amounted to 45; in [3] it was 71; in test [4] it was 11; in test [5], 30. Moreover, the IC50 in test [6] was 0.27 µM; in test [7] it was 0.28 µM; in test [8], 0.18 µM; in test [9], 0.89 µM; in test [10], 9.7 µM; in [11], above 10 µM. The IC50 in test [12], in test [13] and in test [14] was above 10 µM each time. In addition, the “activity against CDK2/cyclin A” value in test [15] is “far less active”. Also, the “effect on cell-cycle progression” value in test [16] is listed as “no effect”.
